The values below come from ChEMBL document CHEMBL5233262, “Anti-inflammatory activity of naturally occuring diarylheptanoids - A review” (Bioorg Med Chem, 2021).

The subject of experiment [1] is RAW264.7. The experiment can be described thus: Antiinflammatory activity in mouse RAW264.7 cells assessed as inhibition of LPS-induced NO production incubated for 24 hrs by Griess method. The format is functional, cell-based. The conditions noted are these: RAW264.7, 24 h. A general note: Nitrite, measured by Griess reagent, commonly stands in for NO production.

Experiment [2] has as its system RAW264.7. Briefly: Antiinflammatory activity in mouse RAW264.7 cells assessed as inhibition of LPS-induced NO production incubated for 20 hrs by Griess method. The note with it: RAW264.7, 20 h. The format is functional, cell-based.
In experiment [3] the test system is RAW264.7. Briefly: Antiinflammatory activity in mouse RAW264.7 cells assessed as inhibition of LPS-induced NO production incubated for 18 hrs by Griess method. The format is functional, cell-based. The note with it: RAW264.7, 18 h.
In experiment [4] the test system is RAW264.7. Briefly: Antiinflammatory activity in mouse RAW264.7 cells assessed as inhibition of LPS-induced NO production preincubated for 1 hrs followed by LPS stimulation and measured after 24 hrs by Griess reagent based analysis. The format is functional, cell-based.
Experiment [5] in a line: Antioxidant activity assessed as nitroblue tetrazolium superoxide radical scavenging activity by spectrophotometric analysis. The format is functional.
The nature of experiment [6]: Antioxidant activity assessed as nitroblue tetrazolium superoxide radical scavenging activity incubated for 10 mins by spectrophotometric analysis. Type of experiment: functional.
Experiment [7] is described as follows: Antioxidant activity assessed as DPPH radical scavenging activity incubated for 30 mins by spectrophotometric analysis. Type of experiment: functional. For orientation: DPPH is a stable violet radical that fades when it is reduced.
Experiment [8] deals with RAW264.7. Briefly: Antiinflammatory activity in mouse RAW264.7 cells assessed as inhibition of LPS-induced IL-1beta production. Type of experiment: functional, cell-based.
For experiment [9], the system named is RAW264.7. The experiment can be described thus: Antiinflammatory activity in mouse RAW264.7 cells assessed as inhibition of LPS-induced TNF-alpha production. The format is functional, cell-based.
For experiment [10], the system named is RAW264.7. Briefly: Antiinflammatory activity in mouse RAW264.7 cells assessed as inhibition of LPS-induced IL-6 production. Type of experiment: functional, cell-based.
The subject of experiment [11] is RAW264.7. Briefly: Antiinflammatory activity in mouse RAW264.7 cells assessed as inhibition of LPS-induced NO production at 10 ug/ml incubated for 20 hrs by Griess reagent based microplate reader analysis. The format is functional.
Experiment [12] concerns RAW264.7. Briefly: Antiinflammatory activity in mouse RAW264.7 cells assessed as inhibition of LPS-induced NO production incubated for 20 hrs by Griess reagent based microplate reader analysis. The format is functional, cell-based. The conditions noted are these: RAW264.7, 20 h.
In experiment [13] the test system is RAW264.7. Briefly: Antiinflammatory activity in mouse RAW264.7 cells assessed as inhibition of LPS-induced iNOS expression at 25 uM. The format is functional.
For experiment [14], the system named is RAW264.7. Briefly: Antiinflammatory activity in mouse RAW264.7 cells assessed as inhibition of KLA-induced TNFalpha expression at 0.06 mg/ml and measured after 24 hrs by ELISA. Type of experiment: functional.
Experiment [15] concerns Rattus norvegicus. The experiment can be described thus: Antiinflammatory activity in Wistar rat model of carrageenan-induced paw edema assessed as reduction in paw thickness at 10 mg/kg,po and measured after 5 hrs. Also noted: scale not given: the % may be the effect or the level left. Type of experiment: functional. A general note: In the carrageenan paw model, swelling and tenderness develop within hours.

The test system of experiment [16] is Mus musculus. Briefly: Antiinflammatory activity in TPA-induced ear edema ICR mouse model assessed as inhibition of ear inflammation at 1 ug, TOP for 30 mins followed by TPA addition and measured after 6 hrs. The format is functional. The note with it: dose 1 µg, time 390 min, 6.5 h.
Experiment [17] deals with T1, Polyunsaturated fatty acid 5-lipoxygenase (Homo sapiens, UniProt P09917).
T1 sequence (P09917 whole entry): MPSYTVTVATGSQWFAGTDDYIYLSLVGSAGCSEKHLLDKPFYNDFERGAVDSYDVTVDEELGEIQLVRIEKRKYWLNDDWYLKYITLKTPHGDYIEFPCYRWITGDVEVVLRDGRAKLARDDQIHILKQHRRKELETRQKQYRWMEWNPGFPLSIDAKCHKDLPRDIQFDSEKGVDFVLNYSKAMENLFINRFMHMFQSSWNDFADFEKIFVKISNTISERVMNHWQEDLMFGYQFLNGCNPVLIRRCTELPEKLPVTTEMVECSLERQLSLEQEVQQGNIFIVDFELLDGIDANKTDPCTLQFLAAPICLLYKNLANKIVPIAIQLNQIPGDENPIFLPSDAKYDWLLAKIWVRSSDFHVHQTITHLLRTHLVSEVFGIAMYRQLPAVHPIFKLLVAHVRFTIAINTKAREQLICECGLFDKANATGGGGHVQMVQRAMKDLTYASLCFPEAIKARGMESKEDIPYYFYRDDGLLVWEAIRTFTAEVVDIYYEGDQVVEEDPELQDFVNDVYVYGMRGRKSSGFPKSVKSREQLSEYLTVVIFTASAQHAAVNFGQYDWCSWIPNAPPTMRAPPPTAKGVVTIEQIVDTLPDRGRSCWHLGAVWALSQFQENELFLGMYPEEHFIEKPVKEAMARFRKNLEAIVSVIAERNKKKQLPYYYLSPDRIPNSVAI
The experiment can be described thus: Inhibition of 5-LOX in human neutrophils assessed as reduction in 5-HETE formation preincubated for 5 mins followed by arachidonic acid and A23187 addition and measured after 5 mins by RP-HPLC analysis. The format is cell-based, Neutrophil.

Experiment [18] deals with Zingiber officinale. Briefly: Inhibition of prostaglandin biosynthesis in ginger. The format is functional, organism-based.
Experiment [19] concerns Mus musculus. The experiment can be described thus: Antiinflammatory activity in ICR mouse model of TPA-induced ear edema assessed as inhibition of ear inflammation at 20 uM,TOP for 30 mins followed by TPA addition and measured after 5 hrs. Type of experiment: functional. The conditions noted are these: 5.5 h, time 330 min.
Experiment [20] in a line: Inhibition of COX in bovine seminal vesicle assessed as reduction in PGE2 production using arachidonic acid as substrate. The format is tissue-based, Bos taurus.
The test system of experiment [21] is U-937. Briefly: Antiinflammatory activity in PMA-stimulated human U-937 cells assessed as inhibition of TNFalpha secretion at 1 ug/ml by ELISA. The format is functional.
Experiment [22] has as its system U-937. Briefly: Antiinflammatory activity in PMA-stimulated human U-937 cells assessed as inhibition of IL-1beta secretion at 1 ug/ml by ELISA. The format is functional.
For experiment [23], the system named is U-937. Briefly: Antiinflammatory activity in PMA-stimulated human U-937 cells assessed as inhibition of IL-1beta protein expression at 1 ug/ml by western blot analysis. The format is functional.
For experiment [24], the system named is RAW264.7. Briefly: Antiinflammatory activity in mouse RAW264.7 cells assessed as inhibition of LPS-induced NF-kappaB expression preincubated for 1 hr followed by LPS stimulation and measured after 18 hrs by qPCR analysis. The format is functional, cell-based.
In experiment [25] the test system is RAW264.7. Briefly: Antiinflammatory activity in mouse RAW264.7 cells assessed as inhibition of LPS-induced TNFalpha production preincubated for 1 hr followed by LPS stimulation and measured after 18 hrs by immunoassay. The format is functional, cell-based.
Experiment [26] relates to RAW264.7. The experiment can be described thus: Antiinflammatory activity in mouse RAW264.7 cells assessed as inhibition of LPS-induced NO production incubated for 24 hrs by Griess reagent based analysis. The note with it: RAW264.7, 24 h. Type of experiment: functional, cell-based.
Experiment [27] relates to RAW264.7. Briefly: Antiinflammatory activity in mouse RAW264.7 cells assessed as inhibition of LPS-induced NF-kappaB activation incubated for 24 hrs by SEAP microplate reader analysis. The format is functional, cell-based. The conditions noted are these: RAW264.7, 24 h.
Experiment [28] has as its system Hepatocyte. The experiment can be described thus: Hepatoprotective activity against CCL4-induced rat hepatocyte toxicity assessed as decrease in TNF-alpha level at 1 uM preincubated for 30 mins followed by CCL4 addition and measured after 180 mins by ELISA. The format is functional. More on the design: scale not given: the % may be the effect or the level left. The conditions noted are these: time 210 min.

Experiment [29] deals with Hepatocyte. The experiment can be described thus: Hepatoprotective activity against CCL4-induced rat hepatocyte toxicity assessed as decrease in IL-1beta level at 1 uM preincubated for 30 mins followed by CCL4 addition and measured after 180 mins by ELISA. More on the design: scale not given: the % may be the effect or the level left. Type of experiment: functional. The conditions noted are these: time 210 min.

Experiment [30] relates to Hepatocyte. Briefly: Hepatoprotective activity against CCL4-induced rat hepatocyte toxicity assessed as decrease in TBARS level by measuring MDA formation at 1 uM preincubated for 30 mins followed by CCL4 addition and measured after 180 mins by TBARS method. Type of experiment: functional. More on the design: scale not given: the % may be the effect or the level left. The conditions noted are these: time 210 min.

In experiment [31] the test system is Hepatocyte. Briefly: Hepatoprotective activity against CCL4-induced rat hepatocyte toxicity assessed as decrease in ALT level at 1 uM preincubated for 30 mins followed by CCL4 addition and measured after 180 mins by colorimetric method. Type of experiment: functional. Also noted: scale not given: the % may be the effect or the level left. The note with it: time 210 min.

The test system of experiment [32] is RAW264.7. The experiment can be described thus: Antiinflammatory activity in mouse RAW264.7 cells assessed as inhibition of LPS-induced NO production by Griess method. The format is functional, cell-based.

Structures are written as SMILES.

What is called IC50 is the concentration needed to halve the response being measured. Turning to `O=C(CCCCc1ccc(O)c(O)c1)CCc1ccc(O)c(O)c1`, the IC50 in [1] is 22.7 µM; in experiment [2] it was 2.6 µM; in experiment [3], 16.8 µM; in experiment [4], 6.6 µM; in [5], 30.1 µM; in [6], 12.7 µM. Further, the IC50 in experiment [7] worked out at 20.1 µM.
As for `COc1cc2cc(c1O)-c1cc(ccc1O)CC[C@H](OS(=O)(=O)O)CCCC2`, the IC50 in experiment [8] is 22.9 µM; in experiment [9], 20.1 µM; in [10], 22.7 µM.
For orientation: inhibition means the change of the read-out against control, counted positive when it falls. For `COc1cc(CCC(O)CC(O)CCc2ccccc2)ccc1O` (configuration not stated), the inhibition at 10 µg/mL in [11] was determined as 27%. Moreover, in [12], the IC50 was greater than 30 µM.
As for `O=C(/C=C/CCc1ccccc1)CCc1ccccc1`, the inhibition at 25 µM in experiment [13] was 71%. Besides, the inhibition at 60 µg/mL in experiment [14] turned out to be 38%. The Activity in experiment [15] worked out at 4.7%. Also, the ID50 in [16] was 2.7 µmol. Further, the IC50 in experiment [12] was 6.8 µM.
As for `COc1cc(CCC(=O)CC(O)CCc2ccc(O)c(OC)c2)ccc1O` (configuration not stated) [HEXAHYDROCURCUMIN], in experiment [11], the inhibition at 10 µg/mL came to 32%. Moreover, in [12], the IC50 is greater than 30 µM.
One may read the inhibition in vivo as how much of the control response was suppressed. Turning to `COc1cc(CCC(=O)CCCCc2ccccc2)ccc1O`, the figures for the IC50 in [17], in experiment [18] and in experiment [20] were 5.4 µM, 0.5 µM and 16 µM, respectively. Moreover, the inhibition in vivo at 20 µM in experiment [19] is 43%.
As for `Oc1ccc(CCC(O)CC/C=C/c2ccccc2)cc1` (configuration not stated), the inhibition at 1 µg/mL in experiment [21] worked out at 19%; in experiment [22], 20%; in [23] it was 58%.
Regarding `COc1cc(CCC(O)CC(O)CCc2ccc(O)c(O)c2)ccc1O` (configuration not stated), the inhibition at 25 µM in experiment [13] was 32%. The IC50 in experiment [12] amounted to 22.8 µM.
As for `C=C1C(=O)O[C@@H]2[C@H]3O[C@]3(C)CC/C=C(\C)CC[C@@H]12`, the IC50 in experiment [24] is 3.4 µM; in experiment [25], 2.6 µM; in experiment [26], 2.4 µM; in experiment [27], 3.4 µM.
In the case of `COc1cc(CC[C@@H](CCCCc2cc(O)c(O)c(O)c2)OC(C)=O)cc(OC)c1O`, the Activity was determined as 38.6% in experiment [28], 63.6% in experiment [29], 67.1% in experiment [30] and 61.1% in [31].
Regarding `COc1cc(C[C@H]2O[C@@H](CC(=O)c3ccc(O)c(OC)c3)C[C@H]2O)ccc1O`, the IC50 in experiment [32] is greater than 100 µM.
